From the NIST ThermoML archive (doi:10.1016/j.jct.2016.12.019)

Test: xn = mol fraction of the nth substance listed
Settings: 100 kPa, Liquid; for viscosity: Capillary tube (Ostwald / Ubbelohde) method; for speed of sound: Frequency=2 MHz, Linear variable-path acoustic interferometer; for mass density: Vibrating tube method

CCN(CC)c1ccccc1 [N,N-diethylaniline] + CCCCCCCCO
Settings	mass density [kg/m3]	speed of sound [m/s]	viscosity [mPa·s]
303.15 K, x1 = 0.1157	828.58	1338.2	5.469
303.15 K, x1 = 0.2012	836.5	1342.6	4.863
303.15 K, x1 = 0.3115	847.11	1349.2	4.178
303.15 K, x1 = 0.4221	858.24	1357.3	3.59
303.15 K, x1 = 0.5111	867.57	1364.9	3.18
303.15 K, x1 = 0.6217	879.68	1375.9	2.743
303.15 K, x1 = 0.7135	890.17	1386.8	2.433
303.15 K, x1 = 0.8063	901.22	1399.4	2.162
303.15 K, x1 = 0.9045	913.42	1414.7	1.915
303.15 K, x1 = 1	925.8	1432	1.711
308.15 K, x1 = 0.1157	824.98	1317.3	4.653
308.15 K, x1 = 0.2012	832.86	1321.9	4.155
308.15 K, x1 = 0.3115	843.43	1329.1	3.59
308.15 K, x1 = 0.4221	854.51	1337.7	3.132
308.15 K, x1 = 0.5111	863.81	1345.7	2.762
308.15 K, x1 = 0.6217	875.86	1357.3	2.397
308.15 K, x1 = 0.7135	886.3	1368.4	2.137
308.15 K, x1 = 0.8063	897.3	1381.4	1.913
308.15 K, x1 = 0.9045	909.45	1397.3	1.704
308.15 K, x1 = 1	921.8	1416	1.537
313.15 K, x1 = 0.1157	820.38	1300	3.991
313.15 K, x1 = 0.2012	828.3	1304.5	3.58
313.15 K, x1 = 0.3115	838.94	1311.6	3.112
313.15 K, x1 = 0.4221	850.09	1320.2	2.707
313.15 K, x1 = 0.5111	859.45	1328.2	2.422
313.15 K, x1 = 0.6217	871.58	1339.5	2.118
313.15 K, x1 = 0.7135	882.1	1350.5	1.899
313.15 K, x1 = 0.8063	893.18	1363.3	1.708
313.15 K, x1 = 0.9045	905.42	1379.3	1.536
313.15 K, x1 = 1	917.9	1398	1.4
318.15 K, x1 = 0.1157	815.85	1286.3	3.504
318.15 K, x1 = 0.2012	823.79	1290.4	3.151
318.15 K, x1 = 0.3115	834.47	1297	2.748
318.15 K, x1 = 0.4221	845.67	1304.9	2.398
318.15 K, x1 = 0.5111	855.06	1312.4	2.154
318.15 K, x1 = 0.6217	867.24	1323	1.889
318.15 K, x1 = 0.7135	877.8	1333.2	1.701
318.15 K, x1 = 0.8063	888.93	1345.1	1.535
318.15 K, x1 = 0.9045	901.24	1360.1	1.388
318.15 K, x1 = 1	913.8	1378	1.276

CCN(CC)c1ccccc1 [N,N-diethylaniline] + CCCCCCCCCCO
Settings	mass density [kg/m3]	speed of sound [m/s]	viscosity [mPa·s]
303.15 K, x1 = 0.1141	831.36	1364.5	7.932
303.15 K, x1 = 0.2218	839.38	1366.8	6.521
303.15 K, x1 = 0.3717	852.13	1372.3	4.96
303.15 K, x1 = 0.4886	863.05	1378.1	4.007
303.15 K, x1 = 0.5815	872.51	1383.9	3.386
303.15 K, x1 = 0.6645	881.58	1390.1	2.918
303.15 K, x1 = 0.7545	892.16	1398.3	2.494
303.15 K, x1 = 0.8324	902.01	1406.8	2.185
303.15 K, x1 = 0.9121	912.85	1417.5	1.929
303.15 K, x1 = 1	925.8	1432	1.711
308.15 K, x1 = 0.1141	827.63	1345.2	6.651
308.15 K, x1 = 0.2218	835.9	1347.8	5.497
308.15 K, x1 = 0.3717	848.55	1353.7	4.217
308.15 K, x1 = 0.4886	859.44	1359.9	3.43
308.15 K, x1 = 0.5815	868.83	1366	2.914
308.15 K, x1 = 0.6645	877.84	1372.5	2.523
308.15 K, x1 = 0.7545	888.35	1380.9	2.167
308.15 K, x1 = 0.8324	898.14	1389.7	1.913
308.15 K, x1 = 0.9121	908.91	1400.6	1.705
308.15 K, x1 = 1	921.8	1416	1.537
313.15 K, x1 = 0.1141	824	1329.2	5.619
313.15 K, x1 = 0.2218	832.24	1331.8	4.671
313.15 K, x1 = 0.3717	844.85	1337.5	3.616
313.15 K, x1 = 0.4886	855.71	1343.5	2.963
313.15 K, x1 = 0.5815	865.07	1349.5	2.529
313.15 K, x1 = 0.6645	874.05	1355.7	2.199
313.15 K, x1 = 0.7545	884.52	1363.8	1.898
313.15 K, x1 = 0.8324	894.28	1372.3	1.687
313.15 K, x1 = 0.9121	905.03	1382.9	1.52
313.15 K, x1 = 1	917.9	1398	1.4
318.15 K, x1 = 0.1141	819.43	1320.2	4.835
318.15 K, x1 = 0.2218	827.69	1321.6	4.032
318.15 K, x1 = 0.3717	840.35	1326.2	3.137
318.15 K, x1 = 0.4886	851.26	1331	2.582
318.15 K, x1 = 0.5815	860.67	1336	2.21
318.15 K, x1 = 0.6645	869.69	1341.2	1.928
318.15 K, x1 = 0.7545	880.21	1348	1.672
318.15 K, x1 = 0.8324	890.03	1355.4	1.493
318.15 K, x1 = 0.9121	900.83	1364.7	1.359
318.15 K, x1 = 1	913.8	1378	1.276
